Data on 63 molecules can be found in a melting point compilation (Tetko et al.; mined from patent text by program, amines drawn as free bases though some values may be those of a salt).

One may read the melting point as the temperature, or range, at which the solid turns liquid. As for `COc1ccc(OCC(O)CN2CCN(c3ccccc3C(=O)O)CC2C)c(C(C)(C)C)c1` (stereo not drawn), the melting point lay within 205 to 208 °C. The same measure for `Cc1noc(NS(=O)(=O)c2ccc(NCCc3ccccc3)cc2-c2ccc(CC(C)C)cc2)c1C`: 68 to 71 °C.

Turning to `Cc1nc(C)c(Cl)c(NCc2nccc(SCCCSCc3ccncc3)c2C)n1`, the melting point is 124 to 125 °C.

Turning to `OC1Cc2ccccc2Sc2cc(Cl)c(Cl)cc21` (stereo not drawn), the melting point was 124 to 126 °C. As to `Cn1nnc2c(N3CCNCC3)ncnc21`, the melting point lay in the range of 95 to 96 °C.

For the molecule `COc1c(F)c(F)cc(C(N)=O)c1F`, the melting point was in the range of 130 to 133 °C. In the case of `CC[C@H](CC[N+](=O)[O-])C(=O)N[C@@H](Cc1ccccc1)C(=O)OC` it was 86.2 to 87.8 °C; in that of `CC(C)(C)n1c(=O)[nH]c2ccccc21`, 146 to 147 °C; in that of `COc1cc2c(N3CCc4ccc(Cl)cc43)ncnc2c(OC)c1OC`, 139 to 143 °C. In the case of `COc1ccc(-c2nncn2-c2ccccc2)cc1` it was 139 to 140 °C; in that of `COC(=O)/C=C/C1=C(C)C2(CCC1(C)C)SCCS2`, 79.5 to 88.1 °C; in that of `CC1(C)CCC(C)(C)c2cc(C(C)(O)C(=O)O)ccc21` (stereo not drawn), 149 to 150 °C. In the case of `C=CC(=O)N1Cc2ccccc2SC(Cl)C1` (stereo not drawn) it was 66 to 68 °C; in that of `O=C(c1ccccc1)N1CC2CC=Cc3cccc1c32` (stereo not drawn), 89 to 91 °C. In turn, `O=C(c1ccc2c(c1)OCCO2)c1ccc2[nH]c(=O)nc(-c3cccc(Cl)c3)c2c1` yielded a melting point of 255 °C. With `O=C1NC(=O)C(F)(c2ccccc2)CO1` (stereo not drawn), the melting point lay within 115 to 117 °C.

The molecule `COc1ccc2c(c1)NC(=O)C(C(=O)N(C)C)C2` (stereo not drawn) registered a melting point of 209 to 210 °C. In the case of `N#Cc1cccc(CN2CCc3cc(Cl)ccc32)c1` it was 73.5 to 75.5 °C.

For `Cc1cc(-c2cnn3c(C(F)(F)F)cc(-c4ccc(C(F)(F)F)c(C)c4)nc23)cc(C)n1`, the melting point was 253 °C. The same measure for `Cc1nc2sc3c(c2c2[nH][nH]c(=O)c12)CCN(C(=O)OC(C)(C)C)C3`: above 300 °C; for `COc1ccc(CCNC(=O)c2ccc(S(=O)(=O)NC(=O)c3ccc(C(=O)NCCO)nc3)cc2)cc1OC`: 201 to 203 °C. In the case of `COC=C(C(=O)OC)c1c(OC)ncnc1Oc1cccc(C)c1` it was 107 °C; in that of `CC(=O)SC1CN(C(C(=O)C2CC2)c2ccccc2F)C1` (stereo not drawn), 49 to 52 °C; in that of `c1cc(-c2cc3nccnc3[nH]2)cc(C2OCCCO2)c1`, 205 to 206 °C. The same measure for `Clc1cn2cc(Cl)c(Cl)c(Cl)c2n1`: 232 to 233 °C. Turning to `CCCCc1nc(SC)cn1Cc1ccc(-c2ccccc2S(=O)(=O)N=CN(C)C)cc1`, the melting point amounted to 148 °C.

In turn, `N#Cc1cnn2c1N(C(=O)CN1CCC(Cc3ccccc3)CC1)CC=C2c1cc(Cl)ccc1Cl` displayed a melting point of 157 to 158 °C. The same measure for `FC(F)(F)Oc1ccc(-c2csc(Nc3cc4ccccc4cn3)n2)cc1`: 269 to 271 °C. The same measure for `CN(C)Cc1ccccc1C1(c2ccc(Cl)cc2)OC(=O)c2ccccc21` (stereo not drawn): 138 to 140 °C; for `Cc1nc(-n2ccc(C(=O)Nc3ccccc3)cc2=O)sc1C(=O)NCc1ccccc1`: 243 to 245 °C.

`CCN(CC)c1ccnc2sc(C(N)=O)c(N)c12` came in with a melting point of 127 to 129 °C. In turn, `COC(=O)C(Oc1ccc(Cl)c(C(F)(F)F)c1)c1ccc(Cl)cc1` (stereo not drawn) showed a melting point of 58 °C. The molecule `CCCc1c(OCCCCCC(=O)c2cc(C)c(O)c(O)c2C)ccc(C(=O)O)c1O` registered a melting point of 121 to 125 °C. As to `CS(=O)(=O)c1ccc(C2=C(c3ccccc3)C(=O)OC23CCCC3)cc1`, the melting point was in the range of 142 to 143 °C. In the case of `Clc1ccc(C2=CCN(Cc3n[nH]c4c(Cl)cccc34)CC2)cc1` it was 171 to 173 °C; in that of `COC(=O)c1ccc(C2=NC(C)(C)Cc3cc(OC)c4c(c32)CC(C)(C)O4)cc1N`, 161 to 162 °C. The same measure for `COc1ccc(NC(=O)CN(C(=O)CNC(=O)Nc2cccc(C)c2)c2ccccc2)cc1`: 194 °C; for `Cc1cc(-c2nc3cccnn3c2-c2ccnc(NC(=O)Nc3cccnc3)c2)ccc1F`: 233 to 234 °C; for `CC(=O)Nc1ccc(F)cc1C(=O)O`: 168 to 170 °C. The same measure for `COc1ccc(N2CCN(c3ccc(OC)nc3-c3ccc(N(C)C)cc3)CCC2=O)cc1`: 192 to 193 °C; for `Cn1cnc2c(Cl)ncnc21`: 205 to 207 °C; for `COc1cccc(C(=O)O)c1I`: 142 to 146 °C. The molecule `Cc1c(CC(C)(C)C(=O)O)n(Cc2ccc(Cl)cc2)c2ccc(Cl)cc12` showed a melting point of 142 °C. `CCc1cccc(CC(=O)O)c1OCCCc1cc(OC(C)C)nn1Cc1ccc(Cl)cc1Cl`: the melting point fell in the range of 98 to 99 °C. For `COc1ccc(C=C(c2ccc(OC)cc2)c2ccc(OC)cc2)cc1`, the melting point was 100 to 101 °C.

With `C[C@H](NC(=O)COCCNC(=O)C12CC3CC(CC(C3)C1)C2)C(=O)N[C@H](CCC(=O)OCc1ccccc1)C(N)=O`, the melting point was 57 to 64 °C.

With `COC(=O)c1cc(C(C)=O)c(C(F)(F)F)cc1NC(C)=O`, the melting point is 66 to 69 °C. The same measure for `COc1ccc2nc3ccc(C(=O)OCOC(=O)C(C)(C)C)cn3c(=O)c2c1`: 129 to 131 °C.

In the case of `Oc1ccc2c(c1)CC(NCc1ccccc1)CC2` (stereo not drawn), the melting point was in the range of 161 to 163 °C. With `CC(=O)NC[C@H]1CN(c2ccc3c(c2)CCS(=O)(=O)C3)C(=O)O1`, the melting point was 177 to 178 °C. The same measure for `COC(=O)c1ccc(Cl)c(C(=O)NOCc2ccc(Cl)cc2)c1Cl`: 120 to 121 °C; for `Cc1sc(C(N)=O)c2c1-c1nn(CC(F)(F)F)cc1CC2`: 227 to 228 °C; for `NC(=O)c1cncn1C(c1ccccc1)c1ccccc1`: 153 °C. The same measure for `O=C(O)c1c[nH]c(=S)n1C1Cc2cc(F)c(F)cc2C1`: 233 to 234 °C; for `CC(C)(C)c1cc(C=Cc2ccccc2NC(=O)NC23CC4CC(CC(C4)C2)C3)cc(C(C)(C)C)c1O`: 205 to 211 °C; for `CCCc1c(OCCCOc2ccc3c(c2CCC)OC(CCC(=O)O)(C(=O)O)CC3=O)ccc(C(C)=O)c1O` (stereo not drawn): 76 to 79 °C. The same measure for `CC1(C)COC(c2cc(-c3ccncc3)n(-c3ccc(F)cc3)n2)OC1`: 150 to 151 °C; for `OCc1c(-c2ccc(F)cc2)nn2ccc3c(c12)CCO3`: 189 to 190 °C.

In turn, `COc1ccc(NC(=O)c2ccc(F)c(F)c2)cc1NC(=S)Nc1cccc(C(=O)O)c1` gave a melting point of 218 to 220 °C. The same measure for `COc1ccccc1OC(=O)CCl`: 60 to 61.5 °C; for `CN(C)c1ncc([N+](=O)[O-])cc1Cl`: 111 to 113 °C. `COC(=O)N(CC(=O)O)C(=O)c1c(Cl)ccc2c(C(F)(F)F)c(OC)ccc12` came in with a melting point of 162 to 165 °C. As to `COc1cc(OC)c2c(=O)[nH]c(-c3ccc(OCCN4CCCC4)c(-c4ccc(S(C)=O)cc4)n3)nc2c1` (stereo not drawn), the melting point fell in the range of 103 to 105 °C.
